Test results as given in patent publication US5731160A, “Induction of antigen specific T-lymphocyte responses by stimulation with peptide loaded MHC class I molecules on antigen processing defective mammalian cell lines” (Rijksuniversiteit Leiden, priority 1992, dated 1998).
Read-outs that look alike come from different tables or passages of the source.

What was measured:
174CEM.T2 cells = experiment: Primary CTL response induction with p53 peptide loaded 174CEM.T2 cells and HLA-A2.1 positive PBL; assay type: cell-based, human; conditions: PBL from healthy non-immunized HLA-A2.1 positive donor; peptide 80 μg/ml
Procedure: 174CEM.T2 (T2) cells in a concentration of 2×10^6 per ml were incubated for 13 hours at 37° C. in a T25 flask (Falcon, Becton & Dickinson, Plymouth, England, cat. no. 3013) in serum-free Iscove's medium (Biochrom KG, Seromed, Berlin, Gemany, cat. no. F0465) with glutamine (2 mM, ICN Biochemicals Inc., Costa Mes, Calif., U.S.A., cat. no. 15-801-55) and antibiotics as mentioned under 2 and p53 peptide at a final concentration of 80 μg/ml. Subsequently the T2 cells were spun down and treated at a density of 20×10^6 cells/ml with Mitomycin C (final concentration 50 μg/ml) in serum-free RPMI 1640 (manufacturer see 2) medium during one hour at 37° C. Thereafter the T2 cells were washed three times im RPMI 1640. Primary CTL responses were induced by filling all wells of a 96-well-U-bottom plate (Costar, Cambridge, Mass., U.S.A., cat. no. 3799) with 1×10^5 Mitomycin-C treated T2 cells in 50 μl of medium (serum-free RPMI 1640 containing glutamine and antibiotics as mentioned before), containing peptide at a concentration of 80 μg/ml. To these stimulator cells were added 4×10^5 HLA-A2.1 positive PBL in 50 μl of medium to each well. Stimulator and responder cells were cocultured for 7 days at 37° C. in an humidified incubator (90% humidity) and 5% CO2 in air.
On days 7 and 14 after primary response induction (see 5) the PBL (responder cells) were restimulated with peptide. […]

T2 cells = experiment: 51Cr release cytotoxicity assay of p53 peptide specific CTL clones on peptide loaded T2 target cells; assay type: cell-based, human; conditions: peptide titration
Procedure: As target cells served T2 cells, labeled with 100 μCi ^51 Cr for 1 h at 37° C. […] The target cells were washed once more before adding them to the effector cells. Effector target ratio ranged from 20:1 to 2.5:1 in twofold dilution. […] Total duration of the incubation time was 4 h at 37° C.
The percentage ^51 Cr release was calculated by the formula: [formula] 7. Cloning of CTL by limiting dilution
The clones were tested for specificity on peptide loaded ^51 Cr labeled target cells ranging from E/T 20 to E/T 2.5 in twofold dilution steps.

target cells = conditions: references 26 and 12; cited from earlier work
RMA-S cells = experiment: Induction of primary CTL responses in vitro with peptide-loaded RMA-S cells; assay type: cell-based, murine; conditions: for Induction of primary CTL response by peptide-loaded RMA-S cells: NWP SC of unprimed B6 mice, 5-day culture, RMA-S as stimulator cells
Procedure: (§1) RMA-S or RMA cells were pre-cultured for 36 h at 22° C. or 37° C. in IMDM medium supplemented with 2% human pooled serum, penicillin (100 IU/ml), kanamycin (100 μg/ml), S and 2-ME (2×10^-5 M). […] Without further washing these (peptide-loaded) RMA-S cells were incubated 1:1(v/v) with C57BL/6 nylon wool-passed spleen cells (B6 NWP SC) in 24-well culture plates: 4×10^6 responder cells and 1×10^6 stimulator cells in 1 ml of culture medium per well in IMDM medium supplemented with 10% FCS, penicillin (100 IU/ml), kanamycin (100 μg/ml), and 2-ME(2×10^-5 M). For a primary CTL response NWP SC of non-immunized C57BL/6 mice were used.
(§2) After 5 days of culture the effectors were harvested on a lymphoprep (Nycomed Pharma, Oslo, Norway) gradient and tested for cytotoxic function on 2000 ^51 Cr-labeled target cells ranging from E/T 50 to E/T 0.8 in twofold dilution steps. The percentage specific ^51 Cr release was calculated by the formula: [formula]
Background (medium) release was always <25% of maximal (2% Triton X-100) release. The SE of triplicate culture was always <5% specific ^51 Cr release. Cytolytic activity calculated from individual dose-response curves is expressed as lytic units per 10^6 effector cells. Calculations were performed using linear regression. As target cells served: B6 mouse embryo cells, treated for 2 days with 50 U/ml IFN-γ at 37° C., LPS-induced (30 μg/ml LPS-B, Bacto Lab., Difco, Detroit, Mich., added to spleen cells for 5 days at 37° C.) B cell blasts from C57BL/6 mice (LPS) or EL4 cell (thymoma cell line of C57BL/6 origin, expressing K^b and Db). […] Virus-infected target cells were prepared by incubating 10^7 target cells with 300 HAU of nonvirulent Sendai virus in 1 ml of medium for 1 h or 12 h before labeling with ^51 Cr (28).
Induction of primary CTL responses in vitro with peptide-loaded RMA-S cells. NWP SC of B6 unprimed mice were stimulated 1:1 (v/v) once in vitro with RMA-S cells, pre-cultured for 36 h at 22° C., only or incubated with 50 μM A16 peptide or 50 μM S16 peptide. Peptide was present during the 5-day culture at 25 μM concentration. The effectors were harvested and tested on B6 mouse embryo cells (MEC) and B6 LPS-induced B cell blasts (LPS) as target cells, without or with 50 μM A16 and S16, respectively.
Peptide titration at induction level (A) and at target level (B) of primary CTL induced by peptide-loaded RMA-S cells.
Primary and secondary CTL responses induced by peptide-loaded RMA-S cells. For primary CTL responses NWP SC of B6 unprimed mice were used (A and B). For secondary CTL responses NWP SC of B6 mice were primed once i.p. with non-virulent Sendai virus (C and D).

[1] = tested on: MHC class I molecules (H-2) on RMA and RMA-S cells; experiment: Direct peptide binding studies with 125I-labeled S9 on RMA and RMA-S cells; parameters: species or system murine
Procedure: RMA and RMA-S cells were cultured for 36 h at 26° C. in Iscove's medium supplemented with 2% human pooled serum. […] MHC class I molecules were immunoprecipitated using rabbit anti-H-2^b serum (29). Class I-associated peptide was quantitated by γ-spectrometry. For determination of H-2 levels 10^6 cells were iodinated using lactoperoxidase-catalyzed iodination. Subsequently cells were washed three times in PBS and lysed in TRITON X-100 lysis buffer. H-2 antigens were precipitated from equal amounts of trichloro-acetic acid (TCA)-precipitable counts (30) using rabbit anti-H-2^b serum (29). Immunoprecipitates were analysed by SDS-PAGE on 12% gels, and gels were exposed to Kodak (Rochester, N.Y.) X-AR5 (photographic film) films. Results were expressed in arbitrary units. One unit is defined as the level of cell surface H-2 per cell and peptide binding per cell, respectively on RMA cells.
Direct peptide binding studies on RMA and RMA-S cells. […] MHC class I molecules were immunoprecipitated using rabbit anti-H-2^b serum. Class I-associated peptide was quantitated by γ-spectrometry. Results are means of duplicate experiments and shown in dpm after subtraction of normal serum control precipitates (A). In (B) 26° C. pre-cultured RMA and RMA-S cells were surface iodinated and H-2 antigens were precipitated from equal amounts of TCA-precipitable counts using rabbit anti-H-2^b serum. The amount of cell surface H-2 on RMA-S cells is depicted relative to the amount on […]. […] The amount of class I-associated peptide on RMA-S cells is depicted relative to the amount on RMA-S cells, which is set at 1 arbitrary unit. Similar results were obtained in three independent experiments.

RMA cells = experiment: Induction of primary CTL responses with peptide-loaded parental RMA cells; assay type: cell-based, murine; conditions: any peptide concentration, pre-culture at 22° C. or 37° C.
Procedure: as §1, §2
Background (medium) release was always <25% of maximal (2% Triton X-100) release. The SE of triplicate culture was always <5% specific ^51 Cr release. Cytolytic activity calculated from individual dose-response curves is expressed as lytic units per 10^6 effector cells. Calculations were performed using linear regression. […]

Sendai virus = conditions: reference 12, cited from earlier work
HLA-A2.1 = biological target: T1, HLA-A2.1 (Homo sapiens, UniProt P04439); experiment: Peptide binding to HLA-A2.1 on (174.CEM) T2 cells; conditions: 200 μg/ml peptide, BB7.2 immunofluorescence
T1 construct: detected by antibody BB7.2
Procedure: Of this suspension 40 μl was put into a V bottomed 96 well plate (Greiner GmbH, Frickenhausen, Germany: 651101) together with 10 μl of the individual peptide dilutions (of 1 mg/ml). […] After a centrifuge round of 1200 rpm the pellet was resuspended in 50 μl of saturating amounts of HLA-A2.1 specific mouse monoclonal antibody BB7.2 for 30 minutes at 4° C.

[2] = 700 nM 125I-S9, 1 h, 26° C., FIG. 4B

T1 sequence (P04439 25-365): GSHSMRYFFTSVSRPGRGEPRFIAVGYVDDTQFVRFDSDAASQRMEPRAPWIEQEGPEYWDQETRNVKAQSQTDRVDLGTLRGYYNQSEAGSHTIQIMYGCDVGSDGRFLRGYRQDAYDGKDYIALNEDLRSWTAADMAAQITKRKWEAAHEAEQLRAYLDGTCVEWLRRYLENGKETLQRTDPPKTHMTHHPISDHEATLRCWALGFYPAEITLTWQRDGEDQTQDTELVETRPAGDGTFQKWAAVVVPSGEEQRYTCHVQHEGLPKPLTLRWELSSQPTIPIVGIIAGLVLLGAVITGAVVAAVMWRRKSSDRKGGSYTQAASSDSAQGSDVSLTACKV
T1 sequence (P61769 21-119 partner): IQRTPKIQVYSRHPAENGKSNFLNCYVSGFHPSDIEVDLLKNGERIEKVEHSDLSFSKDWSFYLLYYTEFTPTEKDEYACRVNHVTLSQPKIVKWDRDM

CC(C)C[C@H](NC(=O)[C@@H](N)CC(C)C)C(=O)NCC(=O)N[C@@H](CCCNC(=N)N)C(=O)N[C@@H](CC(N)=O)C(=O)N[C@@H](CO)C(=O)N[C@@H](Cc1ccccc1)C(=O)N[C@@H](CCC(=O)O)C(=O)N[C@H](C(=O)O)C(C)C [A8]
Generation of CTL response against autologous peptide in vitro (174CEM.T2 cells): possible to generate a CTL response against an autologous peptide | peptide concentration sufficient for target cell sensitization (T2 cells): 20 ng/mL

CDSGPSNTPPEIHPW (CDSGPSNTPPEIHPVV) [A16]
Sensitization of target cells for lysis by CTL (target cells): sensitize target cells for lysis by a CTL clone | Induction of primary CTL response by peptide-loaded RMA-S cells (RMA-S cells): Primary CTL responses could be induced

FAPGNYPAL [S9, Sendai virus nucleoprotein peptide of 9 aa]
difference in peptide binding per cell between RMA and RMA-S cells [1, 2]: 2.5 fold | peptide binding per H-2 molecule on RMA-S cells versus RMA cells [1, 2]: tenfold higher | peptide concentration giving comparable binding, on RMA-S (26° C.) ([1]; comparable to RMA at 1 μM, FIG. 4A): 1 nM | peptide concentration giving comparable binding, on RMA (26° C.) ([1]; comparable to RMA-S at 1 nM, FIG. 4A): 1 µM | amount of peptide bound to RMA cells at 20 μM ([1]; compared with RMA-S cells at 1 μM): did not reach the amount of peptide bount to RMA-S cells observed at 1 μM | minimally required concentration for primary response induction by peptide-loaded RMA-S cells (RMA-S cells; FIG. 3A and B): 1 µM | Induction of primary CTL response by peptide-loaded RMA-S cells (RMA-S cells): primary response was obtained only by stimulation of T cells with peptide-loaded RMA-S cells | Induction of primary CTL response by peptide-loaded RMA cells (RMA cells): non-stimulatory

HGEFAPGNYPALWSYA [S16]
Sensitization of target cells for lysis by CTL (target cells): sensitize target cells for lysis by specific H-2K^b -restricted CTL | Induction of CTL memory in vivo by vaccination with peptide (Sendai virus): induces CTL memory in vivo | Protection against lethal Sendai virus infection (Sendai virus): induce protective immunity against a lethal Sendai virus infection | Protection against lethal Sendai virus infection (Sendai virus; listed as Sendai virus 16-mer peptide): protection against otherwise lethal Sendai virus doses | Induction of primary CTL response by peptide-loaded RMA-S cells (RMA-S cells): Primary CTL responses could be induced

RMPEAAPPV [D6]
Binding to HLA-A2.1 (HLA-A2.1): bind to the HLA-A2.1 molecule
